US8623924B2, “Compositions and methods for modulating metabolic pathways” (Nusirt Sciences, Inc., priority 2011, dated 2014)
Marks after values point to notes of the source that are not given here.

Experiments:
[1] = system: Adipocytes (3T3-L1); test: Fatty acid oxidation (3H-palmitate) in 3T3-L1 adipocytes; type: cell-based; conditions: leucine 0.5 mM, resveratrol 200 nM
Procedure: High glucose medium reduced fatty acid oxidation by 46% (p<0.05).
Fatty acid oxidation was measured using ^3H-labeled palmitate oxidation, with the ^3H label trapped as water as a result of the fat oxidation. The ^3H was then measured via scintillation counter.

[2] = Body weight, weight gain and visceral adiposity in diet-induced obese mice; type: in vivo; conditions: 6 weeks on diet
Text: (§1) Six week old male c57/BL6 mice were fed a high-fat diet with fat increased to 45% of energy (Research Diets D12451) for 6 weeks to induce obesity.
(§2) At the of the treatment period (6 weeks) all animals were humanely euthanized, and blood and tissues collected for further experiments.

[3] = MicroPET/CT glucose and palmitate uptake in diet-induced obese mice; type: in vivo; conditions: 6 weeks on diet
Text: as §1
MicroPET/CT (Glucose and Palmitate Uptake): At the end of the treatment period (6 weeks of treatment) subgroups of each treatment diet group (5 animals/group, 35 animals total) were used to measure whole body glucose and palmitate uptake via PET/CT Imaging. To visualize these compounds using microPET imaging, the glucose or palmitate was labeled with fluorine-18 (108 mins half life) or carbon-11 (20 mins half life), respectively. Each mouse was fasted for 4 hours, then anesthetized using 1-3% isoflurane delivered by nose cone or in a mouse-sized induction chamber purpose-built for small animal imaging protocols. While under anesthesia the mice were injected iv with <2 mCi of each tracer, then be left for a period of time (minutes to up ˜1 hour) to allow the uptake of the tracer. During the scan, mice were kept warm using a thermostatically controlled heated bed and were treated with ophthalmic ointment prior to scanning. Following the live scan the mice were returned to their cage and revived. Mice were monitored constantly during this time. Following live data acquisition the mice were sacrificed by isoflurane overdose and organs harvested for further experiments.

[4] = Oxygen consumption/substrate utilization (metabolic chambers) in diet-induced obese mice; type: in vivo
Procedure: as §1
Oxygen Consumption/Substrate Utilization: at the end of the obesity induction period (day 0 of treatment group) and at 2 weeks and 6 weeks of treatment, oxygen consumption and substrate utilization was measured via metabolic chambers using the Comprehensive Lab Animal Monitoring Systems (CLAMS, Columbus Instruments, Columbus, Ohio) in subgroups of each treatment group. Each animal was placed in individual cages without bedding that allow automated, non-invasive data collection. Each cage is an indirect open circuit calorimeter that provides measurement of oxygen consumption, carbon dioxide production, and concurrent measurement of food intake. All mice were acclimatized to the chambers for 24 hours prior to the experiment and maintained under the regular 12:12 light:dark cycle with free access to water and food. All experiments were started in the morning and data were collected for 24 hours. Each chamber was passed with 0.6 l of air/min and was sampled for 2 min at 32-minute intervals. Exhaust O2 and CO2 content from each chamber was compared with ambient O2 and CO2 content. Food consumption was measured by electronic scales.

[5] = Indices of insulin sensitivity (plasma glucose, insulin, HOMAIR) in diet-induced obese mice; type: in vivo; conditions: 6 weeks on diet; for Glucose (mM) / Insulin (μU/mL): plasma
Text: Insulin sensitivity can be measured using a variety of techniques, including HOMAIR. HOMAIR, which is the homeostasis model assessment of insulin resistance can be used as a screening index of changes in insulin sensitivity. HOMAIR can be calculated via standard formula from fasting plasma insulin and glucose as follows: HOMAIR=[Insulin (uU/mL)×glucose (mM)]/22.5.
as §1, §2

[6] = system: C-reactive protein; test: Inflammatory biomarker C-reactive protein in diet-induced obese mice; type: in vivo; conditions: 6 weeks on diet
[7] = system: IL-6; test: Inflammatory biomarker IL-6 in diet-induced obese mice; type: in vivo; conditions: 6 weeks on diet
[8] = system: MCP-1; test: Inflammatory biomarker MCP-1 in diet-induced obese mice; type: in vivo; conditions: 6 weeks on diet
[9] = system: Adiponectin; test: Adiponectin in diet-induced obese mice; type: in vivo; conditions: 6 weeks on diet
[10] = target: T1, Sirt1 (Mus musculus, UniProt Q923E4); test: Adipose tissue Sirt1 activity in diet-induced obese mice; type: in vivo
T1 construct: from tissue; host or cells: adipose tissue of c57/BL6 mice
T1 sequence (Q923E4 1-737): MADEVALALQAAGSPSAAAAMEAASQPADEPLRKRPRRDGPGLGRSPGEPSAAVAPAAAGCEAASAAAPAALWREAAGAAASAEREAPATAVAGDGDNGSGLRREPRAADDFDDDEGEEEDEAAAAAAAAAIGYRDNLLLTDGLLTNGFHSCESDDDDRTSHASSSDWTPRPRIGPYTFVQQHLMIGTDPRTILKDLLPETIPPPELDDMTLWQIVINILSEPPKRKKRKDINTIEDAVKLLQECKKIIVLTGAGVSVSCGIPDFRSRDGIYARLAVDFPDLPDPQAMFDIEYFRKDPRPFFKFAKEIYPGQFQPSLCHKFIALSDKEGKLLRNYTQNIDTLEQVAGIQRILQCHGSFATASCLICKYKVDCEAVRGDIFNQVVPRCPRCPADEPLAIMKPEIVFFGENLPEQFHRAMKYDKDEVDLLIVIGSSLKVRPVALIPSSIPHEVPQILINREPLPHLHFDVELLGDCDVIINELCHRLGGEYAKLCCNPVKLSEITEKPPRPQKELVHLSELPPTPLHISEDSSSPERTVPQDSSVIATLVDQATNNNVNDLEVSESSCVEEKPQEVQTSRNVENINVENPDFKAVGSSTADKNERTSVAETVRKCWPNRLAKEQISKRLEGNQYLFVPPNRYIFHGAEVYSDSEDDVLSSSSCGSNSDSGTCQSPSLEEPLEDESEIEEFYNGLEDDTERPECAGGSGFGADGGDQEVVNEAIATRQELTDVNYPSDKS

[11] = system: SIRT1; test: Sirt1 activity (fluorimetric kit), Example 5; type: cell-based; conditions: leucine 0.5 mM, HMB 5 μM, resveratrol 200 nM; summary in Example 5
Procedure: Sirt1 Activity: SIRT1 activity was measured by using the SIRT1 Fluorimetric Drug Discovery Kit (BML-AK555, ENZO Life Sciences International, Inc. PA, USA). The assay measures SIRT1 activity by the degree of deacetylation of a standardized substrate containing an acetylated lysine side chain. The substrate utilized is a peptide containing […] of human […]]), an established target of SIRT1 activity; SIRT1 activity is directly proportional to the degree of deacetylation of […]. Samples were incubated with peptide substrate (25 μM), and NAD^+ (500 μM) in a phosphate-buffered saline solution at 37° C. on a horizontal shaker for 45 minutes. The reaction was stopped with the addition of 2 mM nicotinamide and a developing solution that binds to the deacetylated lysine to form a fluorophore.

[12] = system: irisin; test: Plasma irisin in diet-induced obese mice; type: in vivo; conditions: six weeks, resveratrol 12.5 mg/kg diet, leucine 2.42%
Procedure: as §1
As described in Example 5, C2C12 myotubes treated with the indicated combinations of compounds were used to produce conditioned media, with which 3T3-L1 adipocytes were then treated. Fatty acid oxidation was measured as in Example 5. Irisin levels were measured by Western blot and ELISA, both in conditioned media and in plasma from mice treated according to Example 4.
ELISA: Irisin was also detected in C2C12 incubation media from treated cells and in mouse plasma using a commercial enzyme immunoassay kit obtained from Phoenix Pharmaceuticals, Inc. (Burlingame, Calif.). This kit uses an irisin (FNDC5 [16-127] fragment) and streptavidin-horseradish peroxidase detection on a microplate reader at 450 nm.

[13] = system: UCP1; test: Subcutaneous adipose UCP1 mRNA expression in diet-induced obese mice; type: in vivo; conditions: six weeks, resveratrol 12.5 mg/kg diet
[14] = high resveratrol 225 mg/kg diet
[15] = low resveratrol 12.5 mg/kg diet, low HMB 2 g CaHMB/kg diet, high HMB 10 g CaHMB/kg diet, leucine 2.42% of diet

## Oc1ccc(/C=C/c2cc(O)cc(O)c2)cc1 [resveratrol, 3,5,4′-Trihydroxy-trans-stilbene]
[1]; high (25 mM) glucose, 4 hours, HMB 5 uM, vs. control
  increase in fatty acid oxidation, high glucose: no effect
[1]; HMB 5 μM, summary in Example 5
  stimulation of fatty acid oxidation: no effect
[2]; [14]
  Visceral Adipose Volume (mm^3): 6031 ± 323^a mm^3
  Weight (g): 38.7 ± 1.2^a g
  Weight gain (g): 22.3 ± 2.4^a g
[2]; [15]
  Visceral Adipose Volume (mm^3): 6551 ± 575^a mm^3
  Weight (g): 40.8 ± 2.5^a g
  Weight gain (g): 20.9 ± 1.5^a g
[3]; [14]
  Fat oxidation (PET palmitate uptake; Muscle SUV): 2.29 ± 0.11^b SUV
  Muscle Glucose Uptake (18F-deoxyglucose SUV): 3.87 ± 0.32^a SUV
[3]; [15]
  Fat oxidation (PET palmitate uptake; Muscle SUV): 1.51 ± 0.44^a SUV
  Muscle Glucose Uptake (18F-deoxyglucose SUV): 3.63 ± 1.29^a SUV
[4]; [14]
  Heat Production: 0.552 ± 0.015^b
[4]; [15]
  Heat Production: 0.517 ± 0.014^a
[5]; [14]
  HOMAIR: 0.59 ± 0.26^b
  Glucose (mM): 5.14 ± 0.75^a mM
  Insulin (μU/mL): 10.1 ± 2.7^a μU/mL
[5]; [15]
  HOMAIR: 2.41 ± 0.66^a
  Glucose (mM): 5.14 ± 0.85^a mM
  Insulin (μU/mL): 10.4 ± 1.6^a μU/mL
[6]; [14]
  C-reactive protein (ng/mL): 123.9 ± 35.3^a ng/mL
[6]; [15]
  C-reactive protein (ng/mL): 134.8 ± 8.5^a ng/mL
[7]; [14]
  IL-6 (pg/mL): 14.1 ± 1.3^b pg/mL
[7]; [15]
  IL-6 (pg/mL): 23.2 ± 2.9^a pg/mL
[8]; [14]
  MCP-1 (pg/mL): 27.3 ± 6.8^b pg/mL
[8]; [15]
  MCP-1 (pg/mL): 104.4 ± 16.5^a pg/mL
[9]; [14]
  Adiponectin (ng/mL): 14.8 ± 1.8^b ng/mL
[9]; [15]
  Adiponectin: 12.4 ± 1.1 ng/mL
[10]; high dose resveratrol (FIG. 10)
  adipose tissue Sirt1 activity: non-significant trend towards an increase
[10]; low dose of resveratrol, HMB, or their combinations with HMB or leucine (FIG. 10)
  adipose tissue Sirt1 activity: Neither resveratrol nor HMB exerted significant independent effects
[11]
  stimulation of Sirt1 activity: no effect
[12]
  increase in plasma irisin: no independent effect
[13]
  increase in UCP1 expression in white subcutaneous adipose tissue: no independent effect
